One may read the EC50 as the concentration giving half of the maximal effect. Read a low EC50 as greater potency.

This note sets out measurements from patent US20240018145A1, “[…]-DEPENDENT EN[…] TREATING OR […]” (priority 2020, published 2024).

In this assay the test system is FLU A (PR/8/34). Briefly: Flu A Neuraminidase Antiviral Assay. Type of assay: cell-based.

Like-named read-outs stand apart in the source and are kept apart here. Bounds are passed on as bounds.

With `Cc1ccccc1C1N2C(CCC13CC1C(C3)C1(F)F)N(C)C(=O)c1c(O)c(=O)ccn12` (single isomer, unassigned) [Compound 69C, 6,6-difluoro-7′-hydroxy-5′-methyl-1′-(o-tolyl)-3′,4′,4a′,5′-tetrahydro-1′H-spiro[bicyclo[3.1.0]hexane-3,2′-dipyrido[1,2-b:2′,1′-f][1,2,4]triazine]-6′,8′-dione], a half-maximal effect (EC50) was put at 88.4 nM.

Turning to `O=C1c2c(O)c(=O)ccn2N2C(c3ccccc3)CCCC2N1CC1CC1` (single isomer, unassigned) [Compound 56C, 5-(cyclopropylmethyl)-7-hydroxy-1-phenyl-1,2,3,4,4a,5-hexahydrodipyrido[1,2-b:2′,1′-f][1,2,4]triazine-6,8-dione], the EC50 is more than 8100 nM.

The compound `Cc1ccccc1C1C(CC2CC2(F)F)CCC2N(C)C(=O)c3c(O)c(=O)ccn3N12` (single isomer, unassigned) [Compound 88C] displayed an EC50 of 4 nM.

As to `CCN1C(=O)c2c(O)c(=O)ccn2N2C(c3ccccc3)C(C3(C(F)(F)F)CC3)CCC12` (single isomer, unassigned) [Compound 104B, 5-ethyl-7-hydroxy-1-phenyl-2-(1-(trifluoromethyl)cyclopropyl)-1,2,3,4,4a,5-hexahydrodipyrido[1,2-b:2′,1′-f][1,2,4]triazine-6,8-dione], the EC50 is more than 810 nM.

Regarding `CN1C(=O)c2c(O)c(=O)ccn2N2C1CCCC2(C)c1ncc(F)cc1F` (single isomer, unassigned) [Compound 46A, 1-(3,5-difluoropyridin-2-yl)-7-hydroxy-1,5-dimethyl-1,2,3,4,4a,5-hexahydrodipyrido[1,2-b:2′,1′-f][1,2,4]triazine-6,8-dione], the concentration for a half-maximal effect (EC50) amounted to 40.3 nM.

In the case of `CN1C(=O)c2c(O)c(=O)ccn2N2[C@H](c3ccccc3)[C@@H](NC(=O)C(F)(F)F)CC[C@@H]12` [Compound 140], the EC50 (MDCK, 48 h) is 2400 nM.

As for `CN1C(=O)c2c(O)c(=O)ccn2N2C1CCC1(CCC(C(F)(F)F)CC1)C2c1ccccc1` (single isomer, unassigned) [Compound 73A, 7′-hydroxy-5′-methyl-1′-phenyl-4-(trifluoromethyl)-3′,4′,4a′,5′-tetrahydro-1′H-spiro[cyclohexane-1,2′-dipyrido[1,2-b:2′,1′-f][1,2,4]triazine]-6′,8′-dione], the EC50 is more than 810 nM.

The compound `CN1C(=O)c2c(O)c(=O)ccn2N2C(c3cccc(OC(F)F)c3)CCCC12` (single isomer, unassigned) [Compound 12B, 1-(3-(difluoromethoxy)phenyl)-7-hydroxy-5-methyl-1,2,3,4,4a,5-hexahydrodipyrido[1,2-b:2′,1′-f][1,2,4]triazine-6,8-dione] returned an EC50 of more than 8100 nM.

For the setting “MDCK, 48 h”, `CN1C(=O)c2c(O)c(=O)ccn2N2C(c3ccccc3C(F)(F)F)CCCC12` (single isomer, unassigned) [Compound 14A, 7-hydroxy-5-methyl-1-(2-(trifluoromethyl)phenyl)-1,2,3,4,4a,5-hexahydrodipyrido[1,2-b:2′,1′-f][1,2,4]triazine-6,8-dione] had an EC50 of more than 8100 nM.

As for `CCN1C(=O)c2c(O)c(=O)ccn2N2C(c3ccccc3)C(CC3(C(F)(F)F)CC3)CCC12` (single isomer, unassigned) [Compound 97B, 5-ethyl-7-hydroxy-1-phenyl-2-((1-(trifluoromethyl)cyclopropyl)methyl)-1,2,3,4,4a,5-hexahydrodipyrido[1,2-b:2′,1′-f][1,2,4]triazine-6,8-dione], the midpoint of the response, the EC50, lay at 24.2 nM.

Turning to `O=C1c2c(O)c(=O)ccn2N2C(c3ccccc3)CCCC2N1CC1CC1` (single isomer, unassigned) [Compound 56D, 5-(cyclopropylmethyl)-7-hydroxy-1-phenyl-1,2,3,4,4a,5-hexahydrodipyrido[1,2-b:2′,1′-f][1,2,4]triazine-6,8-dione], the EC50 is 37.7 nM.

The compound `CCN1C(=O)c2c(O)c(=O)cc(COC)n2N2C(c3ccccc3)C(CC(F)(F)F)CCC12` (stereo not drawn) [Compound 131D, 5-ethyl-7-hydroxy-10-(methoxymethyl)-1-phenyl-2-(2,2,2-trifluoroethyl)-1,2,3,4,4a,5-hexahydrodipyrido[1,2-b:2′,1′-f][1,2,4]triazine-6,8-dione] yielded an EC50 of more than 810 nM.

With `CN1C(=O)c2c(O)c(=O)ccn2N2C(c3ccccc3)C(c3cccc(F)c3F)CCC12` (single isomer, unassigned) [Compound 116B, 2-(2,3-difluorophenyl)-7-hydroxy-5-methyl-1-phenyl-1,2,3,4,4a,5-hexahydrodipyrido[1,2-b:2′,1′-f][1,2,4]triazine-6,8-dione], the EC50 amounted to 6.9 nM.

Compound `Cc1cccc(F)c1C1C(CC(F)(F)F)CCC2N(C)C(=O)c3c(O)c(=O)ccn3N12` (single isomer, unassigned) [Compound 77A, 1-(2-fluoro-6-methylphenyl)-7-hydroxy-5-methyl-2-(2,2,2-trifluoroethyl)-1,2,3,4,4a,5-hexahydrodipyrido[1,2-b:2′,1′-f][1,2,4]triazine-6,8-dione] returned an EC50 of 3.3 nM.

The compound `CN1C(=O)c2c(O)c(=O)ccn2N2C(c3c(F)cccc3F)CCCC12` (single isomer, unassigned) [Compound 7A, 1-(2,6-difluorophenyl)-7-hydroxy-5-methyl-1,2,3,4,4a,5-hexahydrodipyrido[1,2-b:2′,1′-f][1,2,4]triazine-6,8-dione] showed an EC50 of more than 8100 nM.

On to `CN1C(=O)c2c(O)c(=O)ccn2N2C(c3ccccc3)C(c3cc(F)c(F)cc3F)CCC12` (single isomer, unassigned) [Compound 86C, 7-hydroxy-5-methyl-1-phenyl-2-(2,4,5-trifluorophenyl)-1,2,3,4,4a,5-hexahydrodipyrido[1,2-b:2′,1′-f][1,2,4]triazine-6,8-dione], for which the 50% effective concentration (EC50) was 230 nM.

For the setting “MDCK, 48 h”, `CN1C(=O)c2c(O)c(=O)ccn2N2C(c3cccc4ccccc34)CCCC12` (single isomer, unassigned) [Compound 5A, 7-hydroxy-5-methyl-1-(naphthalen-1-yl)-1,2,3,4,4a,5-hexahydrodipyrido[1,2-b:2′,1′-f][1,2,4]triazine-6,8-dione] showed an EC50 of 1530 nM.

Regarding `COCCN1C(=O)c2c(O)c(=O)ccn2N2C(c3ccc(F)cc3)CCCC12` (single isomer, unassigned) [Compound 4B, 1-(4-fluorophenyl)-7-hydroxy-5-(2-methoxyethyl)-1,2,3,4,4a,5-hexahydrodipyrido[1,2-b:2′,1′-f][1,2,4]triazine-6,8-dione], the EC50 is more than 8100 nM.

Take `CN1C(=O)c2c(O)c(=O)ccn2N2C(c3ccccc3)C(CCC3CC3)CCC12` (single isomer, unassigned) [Compound 115C, 2-(2-cyclopropylethyl)-7-hydroxy-5-methyl-1-phenyl-1,2,3,4,4a,5-hexahydrodipyrido[1,2-b:2′,1′-f][1,2,4]triazine-6,8-dione]: the response was half-maximal at 2.7 nM (EC50).

Regarding `CN1C(=O)c2c(O)c(=O)ccn2N2C1CCCC2(C)c1ccccn1` (single isomer, unassigned) [Compound 30A, 7-hydroxy-1,5-dimethyl-1-(pyridin-2-yl)-1,2,3,4,4a,5-hexahydrodipyrido[1,2-b:2′,1′-f][1,2,4]triazine-6,8-dione], the 50% effective concentration (EC50) turned out to be 16.6 nM.

The compound `CN1C(=O)c2c(O)c(=O)ccn2N2C(c3ccccc3)C(C3CCC(F)(F)CC3)CCC12` (single isomer, unassigned) [Compound 84B, 2-(4,4-difluorocyclohexyl)-7-hydroxy-5-methyl-1-phenyl-1,2,3,4,4a,5-hexahydrodipyrido[1,2-b:2′,1′-f][1,2,4]triazine-6,8-dione] showed an EC50 of 42 nM.
